Patent publication US20210002262A1, “CYANOPYRROLIDINES AS USP30 INHIBITORS AND FIBROSIS TREATMENT” (MISSION THERAPEUTICS LIMITED, priority 2018, published 2021)
Read-outs that look alike come from different tables or passages of the source.

Target: T1, USP30 (Homo sapiens, UniProt Q70CQ3)
T1 sequence (Q70CQ3 1-517): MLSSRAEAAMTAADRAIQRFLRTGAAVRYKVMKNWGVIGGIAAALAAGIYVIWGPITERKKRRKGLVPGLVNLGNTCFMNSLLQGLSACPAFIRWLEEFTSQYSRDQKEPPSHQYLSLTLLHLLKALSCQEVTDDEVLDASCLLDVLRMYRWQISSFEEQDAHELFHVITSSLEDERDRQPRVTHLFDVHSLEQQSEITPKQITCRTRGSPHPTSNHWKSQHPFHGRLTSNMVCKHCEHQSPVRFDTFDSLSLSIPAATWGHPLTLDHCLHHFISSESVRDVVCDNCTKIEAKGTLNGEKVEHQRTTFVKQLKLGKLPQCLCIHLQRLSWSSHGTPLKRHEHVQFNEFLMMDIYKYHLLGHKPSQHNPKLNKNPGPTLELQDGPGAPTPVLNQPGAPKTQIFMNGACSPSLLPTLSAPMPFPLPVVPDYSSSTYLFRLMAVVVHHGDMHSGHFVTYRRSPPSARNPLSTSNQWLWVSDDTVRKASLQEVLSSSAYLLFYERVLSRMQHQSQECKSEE
Test: USP30 biochemical IC50 assay
Method: Dilution plates were prepared at 21 times the final concentration (2100 μM for a final concentration of 100 μM) in 50% DMSO in a 96-well polypropylene V-bottom plate (Greiner #651201). A typical 8-point dilution series would be 100, 30, 10, 3, 1, 0.3, 0.1, 0.03 μM final. Reactions were performed in duplicate in black 384 well plates (small volume, Greiner 784076) in a final reaction volume of 21 μl. Either 1 μl of 50% DMSO or diluted compound was added to the plate. USP30 was diluted in reaction buffer (40 mM Tris, pH 7.5, 0.005% Tween 20, 0.5 mg/ml BSA, 5 mM beta-mercaptoethanol) to the equivalent of 0.05 μl/well and 10 μl of diluted USP30 was added to the compound. Enzyme and compound were incubated for 30 min at room temp. Reactions were initiated by the addition of 50 nM of TAMRA labelled peptide linked to ubiquitin via an iso-peptide bond as fluorescence polarisation substrate. Reactions were read immediately after addition of substrate and following a 2-hour incubation at room temperature. Readings were performed on a Pherastar Plus (BMG Labtech). λ Excitation 540 nm; λ Emission 590 nm.

IC50 (Examples of WO 2017/103614) [nM] | IC50 [nM] | Compound
100 to 1000 |  | N#CN1CCC(CNC(=O)c2cc(-c3ccccc3)no2)C1 (centres unmarked) [Example 21, N-((1-cyanopyrrolidin-3-yl)methyl)-3-phenylisoxazole-5-carboxamide]
100 to 1000 |  | N#Cc1ccc(-n2cnc(C(=O)NC[C@H]3CCN(C#N)C3)c2)cc1 [Example 72, (R)-1-(4-cyanophenyl)-N-((1-cyanopyrrolidin-3-yl)methyl)-1H-imidazole-4-carboxamide]
10 to 100 |  | N#Cc1cccc(-c2nnc(C(=O)NC[C@@H]3CCN(C#N)C3)o2)c1 [Example 69, (S)-5-(3-cyanophenyl)-N-((1-cyanopyrrolidin-3-yl)methyl)-1,3,4-oxadiazole-2-carboxamide]
100 to 1000 |  | N#CN1CC[C@H](CNC(=O)c2nc(-c3ccccc3)cs2)C1 [Example 62, (R)-N-((1-cyanopyrrolidin-3-yl)methyl)-4-phenylthiazole-2-carboxamide]
100 to 1000 |  | N#CN1CC[C@H](CNC(=O)c2cc(-c3ccc(Cl)cc3)no2)C1 [Example 67, (R)-3-(4-chlorophenyl)-N-((1-cyanopyrrolidin-3-yl)methyl)isoxazole-5-carboxamide]
10 to 100 |  | N#Cc1cccc(-n2cnc(C(=O)NC[C@H]3CCN(C#N)C3)c2)c1 [Example 71, (R)-1-(3-cyanophenyl)-N-((1-cyanopyrrolidin-3-yl)methyl)-1H-imidazole-4-carboxamide]
100 to 1000 |  | N#CN1CC[C@H](CNC(=O)c2cc(-c3ccccc3Cl)no2)C1 [Example 66, (R)-3-(2-chlorophenyl)-N-((1-cyanopyrrolidin-3-yl)methyl)isoxazole-5-carboxamide]
100 to 1000 |  | N#CN1CC[C@H](CNC(=O)c2ccn(-c3ccccc3)n2)C1 [Example 63, (R)-N-((1-cyanopyrrolidin-3-yl)methyl)-1-phenyl-1H-pyrazole-3-carboxamide]
10 to 100 |  | N#CN1CC[C@H](CNc2ncc(-c3ccccc3)s2)C1 [Example 9, (R)-3-(((5-phenylthiazol-2-yl)amino)methyl)pyrrolidine-1-carbonitrile]
 | 10 to 100 | C[C@@H]1C(CNC(=O)c2ncn(-c3cccc(C#N)c3)n2)CCN1C#N (mixture of isomers) [Example 4, N-(((2R,3R)-1-cyano-2-methylpyrrolidin-3-yl)methyl)-1-(3-cyanophenyl)-1H-1,2,4-triazole-3-carboxamide and N-(((2R,3S)-1-cyano-2-methylpyrrolidin-3-yl)methyl)-1-(3-cyanophenyl)-1H-1,2,4-triazole-3-carboxamide]
100 to 1000 |  | N#CN1CCC(CNC(=O)c2cnc(-c3ccccc3)o2)C1 (centres unmarked) [Example 20, N-((1-cyanopyrrolidin-3-yl)methyl)-2-phenyloxazole-5-carboxamide]
100 to 1000 |  | N#CN1CCC(CNC(=O)c2ncc(-c3ccccc3)o2)C1 (centres unmarked) [Example 38, N-((1-cyanopyrrolidin-3-yl)methyl)-5-phenyloxazole-2-carboxamide]
10 to 100 |  | N#CN1CC[C@H](CNC(=O)c2cc(-c3cccc(Cl)c3)no2)C1 [Example 55, (R)-3-(3-chlorophenyl)-N-((1-cyanopyrrolidin-3-yl)methyl)isoxazole-5-carboxamide]
100 to 1000 |  | N#CN1CC[C@H](CNC(=O)c2cnc(-c3ccccc3)[nH]2)C1 [Example 64, (R)-N-((1-cyanopyrrolidin-3-yl)methyl)-2-phenyl-1H-imidazole-5-carboxamide]
100 to 1000 |  | N#CN1CCC(CNC(=O)c2cc(-c3ccccc3F)n[nH]2)C1 (centres unmarked) [Example 31, N-((1-cyanopyrrolidin-3-yl)methyl)-3-(2-fluorophenyl)-1H-pyrazole-5-carboxamide]
 | 100 to 1000 | N#CN1CCC(CNC(=O)c2ncn(-c3ccccc3)n2)C1 (centres unmarked) [Example 3, N-((1-cyanopyrrolidin-3-yl)methyl)-1-phenyl-1H-1,2,4-triazole-3-carboxamide]
100 to 1000 |  | N#CN1CC[C@H](CNC(=O)c2cc(-c3ccccc3)on2)C1 [Example 58, (R)-N-((1-cyanopyrrolidin-3-yl)methyl)-5-phenylisoxazole-3-carboxamide]
